Measurements: PubChem BioAssay AID1919002 (Molecular Pharmacology Branch, DTP, NCI, 2023)

Tested on: 743489-274-T-PDC complex spheroid growth
Test: Anticancer human tumor 743489-274-T-PDC patient-derived renal cell carcinoma cell line growth inhibition [AhR]
Conditions: for viability, T/C: stronger effect = lower value
Summary of the method: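 Spheroids combined tumor cells with HUVEC endothelial cells and human MSCs as stroma. AhR antagonists were paired with standard or investigational drugs, each dosed in half-log steps down from near clinical Cmax, or from 10 microM where Cmax was unknown.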

[1] = curve of first compound, second compound 0.1 µM
[2] = curve of first compound, second compound 0.316 µM
[3] = curve of first compound, second compound 1 µM
[4] = curve of first compound, second compound 3.16 µM
[5] = curve of first compound, second compound 10 µM
[6] = second compound 0.1 µM, first compound 0.0316 µM
[7] = second compound 0.1 µM, first compound 0.1 µM
[8] = second compound 0.1 µM, first compound 0.316 µM
[9] = second compound 0.1 µM, first compound 1 µM
[10] = second compound 0.1 µM, first compound 3.16 µM
[11] = second compound 0.1 µM, first compound 10 µM
[12] = second compound 0.316 µM, first compound 0.0316 µM
[13] = second compound 0.316 µM, first compound 0.1 µM
[14] = second compound 0.316 µM, first compound 0.316 µM
[15] = second compound 0.316 µM, first compound 1 µM
[16] = second compound 0.316 µM, first compound 3.16 µM
[17] = second compound 0.316 µM, first compound 10 µM
[18] = second compound 1 µM, first compound 0.0316 µM
[19] = second compound 1 µM, first compound 0.1 µM
[20] = second compound 1 µM, first compound 0.316 µM
[21] = second compound 1 µM, first compound 1 µM
[22] = second compound 1 µM, first compound 3.16 µM
[23] = second compound 1 µM, first compound 10 µM
[24] = second compound 3.16 µM, first compound 0.0316 µM
[25] = second compound 3.16 µM, first compound 0.1 µM
[26] = second compound 3.16 µM, first compound 0.316 µM
[27] = second compound 3.16 µM, first compound 1 µM
[28] = second compound 3.16 µM, first compound 3.16 µM
[29] = second compound 3.16 µM, first compound 10 µM
[30] = second compound 10 µM, first compound 0.0316 µM
[31] = second compound 10 µM, first compound 0.1 µM
[32] = second compound 10 µM, first compound 0.316 µM
[33] = second compound 10 µM, first compound 1 µM
[34] = second compound 10 µM, first compound 3.16 µM
[35] = second compound 10 µM, first compound 10 µM
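Also: spheroids exposed to agents for 7 days before readout.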
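For viability, T/C in this document: 100% = DMSO vehicle control wells.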

## COc1cccc2c1C(=O)c1c(O)c3c(c(O)c1C2=O)CC(O)(C(=O)CO)CC3OC1CC(N)C(O)C(C)O1 (configuration not stated) + Cc1cncc(-c2nc(NCCc3c[nH]c4ccccc34)c3ncn(C(C)C)c3n2)c1
[1]
  IC50: > 10 µM
[2]
  IC50: 5.54 µM
[3]
  IC50: 2.47 µM
[4]
  IC50: 1.35 µM
[5]
  IC50: 0.825 µM
[6]
  viability, T/C: 92.1%
[7]
  viability, T/C: 92.6%
[8]
  viability, T/C: 90.2%
[9]
  viability, T/C: 80.4%
[10]
  viability, T/C: 96.5%
[11]
  viability, T/C: 50.4%
[12]
  viability, T/C: 89.7%
[13]
  viability, T/C: 92.5%
[14]
  viability, T/C: 88.3%
[15]
  viability, T/C: 84.8%
[16]
  viability, T/C: 70.6%
[17]
  viability, T/C: 28.4%
[18]
  viability, T/C: 89.6%
[19]
  viability, T/C: 97%
[20]
  viability, T/C: 92.2%
[21]
  viability, T/C: 89.6%
[22]
  viability, T/C: 39.2%
[23]
  viability, T/C: 0.75%
[24]
  viability, T/C: 91.3%
[25]
  viability, T/C: 91.6%
[26]
  viability, T/C: 93.6%
[27]
  viability, T/C: 67.6%
[28]
  viability, T/C: 0.25%
[29]
  viability, T/C: 0.22%
[30]
  viability, T/C: 111%
[31]
  viability, T/C: 96%
[32]
  viability, T/C: 93.6%
[33]
  viability, T/C: 42%
[34]
  viability, T/C: 0.4%
[35]
  viability, T/C: 0.25%

## CC(CO)NC(=O)c1cc(-c2ccc(Cl)cc2)nn(-c2cnn(C)c2)c1=O (configuration not stated)
Compound 0.316 µM
  viability, T/C: 90% [middle of 21 runs]
Compound alone, run of 08/08/2022
  IC50: > 10 µM

## CC1COCCN1c1cc(C2(S(C)(=N)=O)CC2)nc(-c2ccnc3[nH]ccc23)n1 (configuration not stated) + Cc1ccccc1N=Nc1ccc(NC(=O)c2ccnn2C)c(C)c1
[1]
  IC50: > 10 µM
[2]
  IC50: > 10 µM
[3]
  IC50: > 10 µM
[4]
  IC50: > 10 µM
[5]
  IC50: > 10 µM
[6]
  viability, T/C: 92.1%
[7]
  viability, T/C: 101%
[8]
  viability, T/C: 92.2%
[9]
  viability, T/C: 97.3%
[10]
  viability, T/C: 98.8%
[11]
  viability, T/C: 102%
[12]
  viability, T/C: 99%
[13]
  viability, T/C: 87.6%
[14]
  viability, T/C: 109%
[15]
  viability, T/C: 88.4%
[16]
  viability, T/C: 86.8%
[17]
  viability, T/C: 99.1%
[18]
  viability, T/C: 104%
[19]
  viability, T/C: 99.4%
[20]
  viability, T/C: 95.8%
[21]
  viability, T/C: 88%
[22]
  viability, T/C: 88.4%
[23]
  viability, T/C: 81.5%
[24]
  viability, T/C: 86.8%
[25]
  viability, T/C: 85.7%
[26]
  viability, T/C: 95.5%
[27]
  viability, T/C: 78.6%
[28]
  viability, T/C: 83.2%
[29]
  viability, T/C: 80.4%
[30]
  viability, T/C: 85.4%
[31]
  viability, T/C: 89.1%
[32]
  viability, T/C: 87.4%
[33]
  viability, T/C: 84.8%
[34]
  viability, T/C: 78.4%
[35]
  viability, T/C: 75%

## CC1(C)CCC(CN2CCN(c3ccc(C(=O)NS(=O)(=O)c4ccc(NCC5CCOCC5)c([N+](=O)[O-])c4)c(Oc4cnc5[nH]ccc5c4)c3)CC2)=C(c2ccc(Cl)cc2)C1 + Cc1cncc(-c2nc(NCCc3c[nH]c4ccccc34)c3ncn(C(C)C)c3n2)c1
[1]
  IC50: > 10 µM
[2]
  IC50: > 10 µM
[3]
  IC50: > 10 µM
[4]
  IC50: > 10 µM
[5]
  IC50: > 10 µM
[6]
  viability, T/C: 103%
[7]
  viability, T/C: 105%
[8]
  viability, T/C: 107%
[9]
  viability, T/C: 106%
[10]
  viability, T/C: 99.5%
[11]
  viability, T/C: 113%
[12]
  viability, T/C: 98.5%
[13]
  viability, T/C: 110%
[14]
  viability, T/C: 106%
[15]
  viability, T/C: 104%
[16]
  viability, T/C: 104%
[17]
  viability, T/C: 123%
[18]
  viability, T/C: 99.4%
[19]
  viability, T/C: 108%
[20]
  viability, T/C: 103%
[21]
  viability, T/C: 114%
[22]
  viability, T/C: 133%
[23]
  viability, T/C: 128%
[24]
  viability, T/C: 116%
[25]
  viability, T/C: 123%
[26]
  viability, T/C: 119%
[27]
  viability, T/C: 135%
[28]
  viability, T/C: 145%
[29]
  viability, T/C: 138%
[30]
  viability, T/C: 106%
[31]
  viability, T/C: 111%
[32]
  viability, T/C: 112%
[33]
  viability, T/C: 133%
[34]
  viability, T/C: 151%
[35]
  viability, T/C: 227%

## CCN(c1cc(-c2ccc(CN3CCOCC3)cc2)cc(C(=O)NCc2c(C)cc(C)[nH]c2=O)c1C)C1CCOCC1 + Cc1ccccc1N=Nc1ccc(NC(=O)c2ccnn2C)c(C)c1
[1]
  IC50: > 3 µM
[2]
  IC50: > 3 µM
[3]
  IC50: > 3 µM
[4]
  IC50: > 3 µM
[5]
  IC50: > 3 µM
Second compound 0.1 µM, first compound 0.00949 µM
  viability, T/C: 91.2%
Second compound 0.1 µM, first compound 0.03 µM
  viability, T/C: 88.2%
Second compound 0.1 µM, first compound 0.0949 µM
  viability, T/C: 93.7%
Second compound 0.1 µM, first compound 0.3 µM
  viability, T/C: 84.5%
Second compound 0.1 µM, first compound 0.949 µM
  viability, T/C: 90.8%
Second compound 0.1 µM, first compound 3 µM
  viability, T/C: 90.4%
Second compound 0.316 µM, first compound 0.00949 µM
  viability, T/C: 82.1%
Second compound 0.316 µM, first compound 0.03 µM
  viability, T/C: 93.3%
Second compound 0.316 µM, first compound 0.0949 µM
  viability, T/C: 86.2%
Second compound 0.316 µM, first compound 0.3 µM
  viability, T/C: 77.3%
Second compound 0.316 µM, first compound 0.949 µM
  viability, T/C: 86.6%
Second compound 0.316 µM, first compound 3 µM
  viability, T/C: 84.2%
Second compound 1 µM, first compound 0.00949 µM
  viability, T/C: 88.6%
Second compound 1 µM, first compound 0.03 µM
  viability, T/C: 83.2%
Second compound 1 µM, first compound 0.0949 µM
  viability, T/C: 89.5%
Second compound 1 µM, first compound 0.3 µM
  viability, T/C: 94.3%
Second compound 1 µM, first compound 0.949 µM
  viability, T/C: 81%
Second compound 1 µM, first compound 3 µM
  viability, T/C: 99.6%
Second compound 3.16 µM, first compound 0.00949 µM
  viability, T/C: 76%
Second compound 3.16 µM, first compound 0.03 µM
  viability, T/C: 77%
Second compound 3.16 µM, first compound 0.0949 µM
  viability, T/C: 77.2%
Second compound 3.16 µM, first compound 0.3 µM
  viability, T/C: 74.5%
Second compound 3.16 µM, first compound 0.949 µM
  viability, T/C: 81%
Second compound 3.16 µM, first compound 3 µM
  viability, T/C: 82%
Second compound 10 µM, first compound 0.00949 µM
  viability, T/C: 72.2%
Second compound 10 µM, first compound 0.03 µM
  viability, T/C: 84.3%
Second compound 10 µM, first compound 0.0949 µM
  viability, T/C: 85.9%
Second compound 10 µM, first compound 0.3 µM
  viability, T/C: 71.7%
Second compound 10 µM, first compound 0.949 µM
  viability, T/C: 77.9%
Second compound 10 µM, first compound 3 µM
  viability, T/C: 73.1%

## Nc1ccccc1NC(=O)c1ccc(CNC(=O)OCc2cccnc2)cc1 + Cc1ccccc1N=Nc1ccc(NC(=O)c2ccnn2C)c(C)c1
[1]
  IC50: 4.62 µM
[2]
  IC50: 2.64 µM
[3]
  IC50: 3.67 µM
[4]
  IC50: 2.63 µM
[5]
  IC50: 2.26 µM
[6]
  viability, T/C: 101%
[7]
  viability, T/C: 96.6%
[8]
  viability, T/C: 95.9%
[9]
  viability, T/C: 80.2%
[10]
  viability, T/C: 63%
[11]
  viability, T/C: 25.4%
[12]
  viability, T/C: 99.9%
[13]
  viability, T/C: 99.7%
[14]
  viability, T/C: 84%
[15]
  viability, T/C: 79.7%
[16]
  viability, T/C: 42.7%
[17]
  viability, T/C: 23.8%
[18]
  viability, T/C: 89.8%
[19]
  viability, T/C: 95%
[20]
  viability, T/C: 88.2%
[21]
  viability, T/C: 74.3%
[22]
  viability, T/C: 54.7%
[23]
  viability, T/C: 24.5%
[24]
  viability, T/C: 93.3%
[25]
  viability, T/C: 98%
[26]
  viability, T/C: 88.3%
[27]
  viability, T/C: 70%
[28]
  viability, T/C: 47%
[29]
  viability, T/C: 28.5%
[30]
  viability, T/C: 86.9%
[31]
  viability, T/C: 95.9%
[32]
  viability, T/C: 88.4%
[33]
  viability, T/C: 66.2%
[34]
  viability, T/C: 44.4%
[35]
  viability, T/C: 28.6%
